According to ChEMBL document CHEMBL1799997, “Discovery of omecamtiv mecarbil the first, selective, small molecule activator of cardiac Myosin” (ACS Med Chem Lett, 2010):
Converted amounts (≈) assume the structure as drawn. The source made the active and inactive calls. The rule behind the calls is not given here.

Legend:
[1] = Induction of contractility in Sprague-Dawley rat Cardiomyocytes assessed as change in fractional shortening at 2 uM; type: functional, Cardiac muscle cell
[2] = Plasma protein binding in Sprague-Dawley rat; type: ADME, cell-free; settings: read-out: PPB (converted)
[3] = Ratio of extraction in human Liver microsomes; type: ADME, Microsome; settings: read-out: ERH
[4] = test system: Aorta; assay: Inhibition of vasodilation in Sprague-Dawley rat aortic ring; type: functional
[5] = Solubility of the compound at pH 5 by shake flask method; type: physicochemical; settings: buffer
[6] = target: T1, Cytochrome P450 1A2 (Homo sapiens, UniProt P05177); assay: Inhibition of CYP1A2; type: ADME
T1 sequence (P05177 whole entry): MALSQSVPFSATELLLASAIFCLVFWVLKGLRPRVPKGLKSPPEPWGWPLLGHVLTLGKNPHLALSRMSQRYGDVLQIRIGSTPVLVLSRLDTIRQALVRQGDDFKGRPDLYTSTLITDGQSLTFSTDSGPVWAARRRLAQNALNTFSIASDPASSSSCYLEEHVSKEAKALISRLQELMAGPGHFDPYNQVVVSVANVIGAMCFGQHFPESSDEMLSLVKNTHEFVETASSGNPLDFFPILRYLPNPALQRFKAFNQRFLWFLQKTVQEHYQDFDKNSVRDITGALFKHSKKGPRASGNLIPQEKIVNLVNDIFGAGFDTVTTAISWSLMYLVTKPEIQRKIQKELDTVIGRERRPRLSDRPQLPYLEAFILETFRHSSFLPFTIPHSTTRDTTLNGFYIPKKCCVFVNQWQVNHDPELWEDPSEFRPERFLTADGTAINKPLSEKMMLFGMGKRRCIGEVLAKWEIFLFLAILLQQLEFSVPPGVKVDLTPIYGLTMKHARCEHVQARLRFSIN

[7] = species: Rattus norvegicus; assay: Activation of Sprague-Dawley rat myosin in cardiomyocytes assessed as compound concentration resulting in 40% increase in ATPase activity at calcium concentrations that produced 25-50% of maximum calcium dependent activation; type: cell-based
[8] = Volume of distribution in Beagle dog heart failure model; type: ADME, organism-based, Canis lupus familiaris; settings: in vivo
[9] = Volume of distribution in Sprague-Dawley rat; type: ADME, organism-based; settings: in vivo
[10] = Bioavailability in Beagle dog heart failure model; type: ADME, organism-based, Canis lupus familiaris; settings: in vivo
[11] = Clearance in Beagle dog heart failure model; type: ADME, organism-based, Canis lupus familiaris; settings: in vivo
[12] = Clearance in Sprague-Dawley rat; type: ADME, organism-based; settings: in vivo
[13] = Induction of contractility in Sprague-Dawley rat Cardiomyocytes assessed as change in fractional shortening at 0.2 uM; type: functional, Cardiac muscle cell
[14] = Bioavailability in Sprague-Dawley rat; type: ADME, organism-based; settings: in vivo
[15] = Induction of contractility in Sprague-Dawley rat Cardiomyocytes assessed as change in fractional shortening at 0.8 uM; type: functional, Cardiac muscle cell
[16] = Induction of contractility in Sprague-Dawley rat Cardiomyocytes assessed as change in fractional shortening at 0.4 uM; type: functional, Cardiac muscle cell
[17] = Kinetic solubility of the compound; type: physicochemical
[18] = Induction of contractility in Sprague-Dawley rat Cardiomyocytes assessed as change in fractional shortening at 10 uM; type: functional, Cardiac muscle cell
[19] = target: T2, CYP1A2 (Homo sapiens, UniProt P05177); assay: Inhibition of CYP1A2 at 10 uM; type: ADME
T2 sequence (P05177 whole entry): T1 sequence (P05177 whole entry)

[20] = species: Gallus gallus; assay: Activation of chicken gizzard myosin in smooth muscle assessed as compound concentration resulting in 40% increase in ATPase activity at calcium concentrations that produced 25-50% of maximum calcium dependent activation at 100 uM as single dose
[21] = species: Bos taurus; assay: Activation of bovine uterus myosin in smooth muscle assessed as compound concentration resulting in 40% increase in ATPase activity at calcium concentrations that produced 25-50% of maximum calcium dependent activation at 100 uM as single dose
[22] = species: Bos taurus; assay: Activation of bovine myosin in cardiac sarcomere assessed as compound concentration resulting in 40% increase in ATPase activity at calcium concentrations that produced 25-50% of maximum calcium dependent activation at 100 uM as single dose
[23] = species: Oryctolagus cuniculus; assay: Activation of rabbit myosin in skeletal muscle assessed as compound concentration resulting in 40% increase in ATPase activity at calcium concentrations that produced 25-50% of maximum calcium dependent activation at 100 uM as single dose
[24] = Induction of contractility in Sprague-Dawley rat Cardiomyocytes assessed as change in increase in fractional shortening at 2 uM; type: functional, Cardiac muscle cell
[25] = species: Rattus norvegicus; assay: Activation of myosin in Sprague-Dawley rat cardiomyocytes assessed as compound concentration resulting in 40% increase in ATPase activity at calcium concentrations that produced 25-50% of maximum calcium dependent activation; type: cell-based

SMILES	fraction unbound [2]	hepatic extraction ratio [3]	solubility thermodynamic [5] [mg/mL]	IC50 [6] [µM]	Activity [7] [µM]	solubility kinetic [17] [mg/mL]	Activity [1] [%]	R50 [4] [µM]	other results
CN(C)S(=O)(=O)N1CC[C@@H](Oc2cc(F)cc(NC(=O)Nc3cccnc3)c2)C1	0.112	0.9	0.013 (≈ 30.7 µM)	0.06	0.7	–	–	>25	Activity [16]: 137%
O=C(Nc1cccnc1)Nc1cc(F)cc(Oc2cccnc2)c1	0.071	–	0.028 (≈ 86.3 µM)	–	1.1	0.046 (≈ 142 µM)	127	–	–
O=C(Nc1ccc(F)cc1)Nc1cc(F)cc(Oc2cccnc2)c1	–	–	–	–	1.8	0.0011 (≈ 3.22 µM)	121	–	–
CN(C)S(=O)(=O)N1CCC[C@@H](Oc2cc(F)cc(NC(=O)Nc3cccnc3)c2)C1	0.079	–	0.04 (≈ 91.4 µM)	–	0.6	–	–	6.6	Activity [15]: 126%
O=C(Nc1cc(F)cc(Oc2cccnc2)c1)c1ccc(F)cc1	0.079	–	–	–	2.5	0.0053 (≈ 16.2 µM)	104	–	–
O=C(Nc1cc(Oc2cccnc2)cc([N+](=O)[O-])c1)c1ccc(F)cc1	–	–	–	–	1.4	< 0.001	–	–	Activity [20]: inactive; Activity [21]: inactive; Activity [22]: Active; Activity [23]: inactive; Activity [24]: 135%; Activity [25]: Active
COc1ccc(NC(=O)Nc2cc(F)cc(Oc3cccnc3)c2)cn1	0.075	–	–	–	1.4	0.028 (≈ 79 µM)	134	–	–
O=C(Nc1cccc(Oc2cccnc2)c1)c1ccc(F)cc1	–	–	–	–	32	0.017 (≈ 55.1 µM)	–	–	–
COc1ccc(NC(=O)Nc2cc(F)cc(Oc3cccnc3)c2)cc1	0.049	–	–	–	0.7	< 0.001	139	–	–

Now from value to molecule, other results behind:

fraction unbound [2]	hepatic extraction ratio [3]	solubility thermodynamic [5] [mg/mL]	IC50 [6] [µM]	Activity [7] [µM]	solubility kinetic [17] [mg/mL]	SMILES	Activity [1] [%]	R50 [4] [µM]	other results
0.065	0.3	0.017 (≈ 42.2 µM)	> 10	0.8	–	COC(=O)N1CCC(Oc2cc(F)cc(NC(=O)Nc3ccc(C)nc3)c2)CC1	123	11	–
0.204	< 0.2	2.2 (≈ 5480 µM)	> 10	0.58	–	COC(=O)N1CCN(Cc2cccc(NC(=O)Nc3ccc(C)nc3)c2F)CC1 [OMECAMTIV MECARBIL]	–	>25	Vd [8]: 3.6 L/kg; Vd [9]: 3.5 L/kg; bioavailability [10]: 80%; clearance [11]: 0.432 L/h/kg; clearance [12]: 1.32 L/h/kg; Activity [13]: 123%; bioavailability [14]: 100%
0.103	< 0.2	4.6 (≈ 11500 µM)	> 10	1.7	–	COC(=O)N1CCN(Cc2cc(F)cc(NC(=O)Nc3ccc(C)nc3)c2)CC1	–	>25	Activity [15]: 138%
–	0.6	0.13 (≈ 336 µM)	> 10	2.5	–	CC(=O)N1CCC[C@@H](Oc2cc(F)cc(NC(=O)Nc3ccc(C)nc3)c2)C1	140	2.4	–
0.175	–	0.55 (≈ 1480 µM)	–	7.3	–	CC(=O)N1CCC[C@H](Oc2cc(F)cc(NC(=O)Nc3cccnc3)c2)C1	–	>25	Activity [18]: 122%; inhibition at 10 µM [19]: 99%
0.128	< 0.2	4 (≈ 10400 µM)	> 10	4.5	–	COC(=O)N1CCN(Cc2cccc(NC(=O)Nc3ccc(C)nc3)c2)CC1	–	15	Activity [15]: 126%
0.175	0.5	0.39 (≈ 1050 µM)	0.08	2.5	–	CC(=O)N1CCC[C@@H](Oc2cc(F)cc(NC(=O)Nc3cccnc3)c2)C1	129	1.7	–
0.096	0.5	0.018 (≈ 46.3 µM)	–	3.6	–	COC(=O)N1CCC[C@@H](Oc2cc(F)cc(NC(=O)Nc3cccnc3)c2)C1	123	8	inhibition at 10 µM [19]: 97%
